In ChEMBL document CHEMBL1201862, “PubChem BioAssay data set” (2004):
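How tested: cells in 96-well plates exposed to compound for 48 hours at five concentrations. Abbreviation: GI50, concentration required for 50% inhibition of growth.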 Activity calls are given as the source filed them. Rule as the data show it: active = GI50 up to about 1.1 µM and inactive = higher.

What was measured:
Experiment in all cases: NCI anticancer screen, dose series, 48 h
[1] = system: BT-549
[2] = system: HCC 2998
[3] = system: HL-60
[4] = system: HT-29
[5] = system: Hs-578T
[6] = system: NCI-H460
[7] = system: NCI-H522
[8] = system: NCI/ADR-RES
[9] = system: OVCAR-4
[10] = system: OVCAR-5
[11] = system: RPMI-8226
[12] = system: RXF 393
[13] = system: SK-MEL-28
[14] = system: SK-MEL-5
[15] = system: SNB-19
[16] = system: SR
[17] = system: T47D
[18] = system: U-251
[19] = system: UACC-62
[20] = system: XF498

C=C1C(=O)C=C2C=C3C(=O)C(C)(C)C[C@]3(O)C12C (stereo not given in full)
GI50 [1]: 1.54 µM (inactive)
GI50 [2]: 19.7 µM (inactive)
GI50 [3]: 0.497 µM (active)
GI50 [4]: 3.27 µM (inactive)
GI50 [5]: 8.22 µM (inactive)
GI50 [6]: 18.9 µM (inactive)
GI50 [7]: 1.61 µM (inactive)
GI50 [8]: 28.8 µM (inactive)
GI50 [9]: 3.43 µM (inactive)
GI50 [10]: 9.55 µM (inactive)
GI50 [11]: 1.21 µM (inactive)
GI50 [12]: 1.48 µM (inactive)
GI50 [13]: 2.52 µM (inactive)
GI50 [14]: 6.62 µM (inactive)
GI50 [15]: 29.5 µM (inactive)
GI50 [16]: 0.452 µM (active)
GI50 [17]: 2.15 µM (inactive)
GI50 [18]: 17.9 µM (inactive)
GI50 [19]: 8.39 µM (inactive)
GI50 [20]: 1.85 µM (inactive)
